In publication PMC6271975, “Structure-Activity Relationship Study of Sesquiterpene Lactones and Their Semi-Synthetic Amino Derivatives as Potential Antitrypanosomal Products” (Molecules, 2014):
Values joined by “and” are separate entries in the source; they are usually repeats but may differ in a detail not shown here. Equal entries are not always repeated. Where two headings read alike, the source gives them in different places.

Tests used:
[1] = test system: T. b. rhodesiense STIB 900 bloodstream forms; test: In vitro antitrypanosomal Alamar Blue assay; assay type: cell-based, Trypanosoma brucei rhodesiense; conditions: for SI (Selectivity Index): IC50 against L6 cells divided by IC50 against STIB 900 strain; for IC50: read-out: T. brucei STIB 900 IC50
Procedure: Evaluation of in vitro antiprotozoal activity against T. b. rhodesiense was done using the Alamar Blue assay to determine IC50s as previously described. Serial threefold dilution were prepared in 96-well micro titre plates, and 4000 T. b. rhodesiense STIB 900 bloodstream forms in 50 μL were added to each well except for the negative controls. Melarsoprol (Arsobal®, purity > 95%, Sanofi-Aventis, Meyrin, Switzerland) was used as reference drugs. […] The IC50 values were calculated from the sigmoidal growth inhibition curves using Softmax Pro software (Molecular Devices).

[2] = test system: rat skeletal myoblasts (L6-cells); test: cells; assay type: cell-based; conditions: for IC50: read-out: L6 cells IC50
Procedure: The cytotoxicity assay was performed with rat skeletal myoblasts (L6-cells) seeded in 100 μL RPMI 1640 in 96-well micro titre plates, using the Alamar Blue assay described above. After 24 h the medium was removed and replaced by 100 μL of fresh RPMI 1640 with serial threefold drug dilution. Podophyllotoxin (purity > 95%, Sigma-Aldrich) was used as a reference drug. After 70 h of incubation under a humidified 5% CO2 atmosphere, 10 μL of the Alamar blue marker (see above) was added to all wells. The plates were incubated for an additional 2 h. A Spectramax Gemini XS micro plate fluorescence reader (Molecular Devices) was used to read the plates using an excitation wavelength of 536 nm and an emission wavelength of 588 nm. The IC50s were calculated from the sigmoidal growth inhibition curves using Softmax Pro software (Molecular Devices).

[3] = test system: rat skeletal myoblasts (L6-cells); parameters: method as in PMID 22331812, PMID 24080104, PMID 21624443, PMID 22396915; conditions: cytotoxicity; previously reported compounds included for comparison; cited from earlier work
[4] = test system: T. b. rhodesiense STIB 900 bloodstream forms; parameters: method as in PMID 22331812, PMID 24080104, PMID 21624443, PMID 22396915; conditions: cited from earlier work; for SI (Selectivity Index): IC50 against L6 cells divided by IC50 against STIB 900 strain, previously reported compounds; for IC50: previously reported compounds included for comparison, compound 9 tested once, read-out: T. brucei STIB 900 IC50
[5] = Trypanosoma brucei, 70 h, 70 h incubation, average of three independent assays
[6] = Rattus norvegicus, L6, 70 h, cytotoxicity, 70 h incubation, average of three independent assays
[7] = 70 h incubation, average of three independent assays
[8] = Trypanosoma brucei, 70 h incubation, average of three independent assays
[9] = Rattus norvegicus, L6, cytotoxicity, 70 h incubation, average of three independent assays

SMILES	SI (Selectivity Index) [1]	IC50 [1, 5]	IC50 [2, 6]	other results
CC1=C2C3OC(=O)C(CNCc4ccc(Cl)cc4)C3CCC2(C)C=CC1=O (centres unmarked) [Compound 32, 4-Chlorobenzylamine adduct]	3.4	10.6 ± 1.5 µM	34.8 ± 1.2 µM	
C=C1C(=O)O[C@@H]2/C=C(\C)CC/C=C(\C)CC[C@@H]12 [Compound 7, costunolide]				IC50 [3]: 7.7 ± 1.3 µM; SI (Selectivity Index) [4]: 5.9; IC50 [4]: 1.3 ± 0.4 µM
C=C1C(=O)O[C@@H]2/C=C(\C)CC/C=C(\C)C[C@@H](OC(=O)/C(=C/CO)CO)[C@@H]12 [Compound 13, Eupatoriopicrin]				IC50 [3]: 1.6 ± 0.1 µM; SI (Selectivity Index) [4]: 1.3; IC50 [4]: 1.2 ± 0.2 µM
CC1C(=O)C=CC2(C)CCC3C(CN4CCOCC4)C(=O)OC3C12 (centres unmarked) [Compound 24, Morpholine adduct]	13.3	2.4 ± 0.7 µM	31.3 ± 1.4 µM	
CC1C(=O)CCC2(C)CCC3C(CNCCc4ccc(O)cc4)C(=O)OC3C12 (centres unmarked) [Compound 27, Tyramine adduct]	4	13 ± 1.4 µM	45.6 ± 3.2 µM	
C=C1C(=O)O[C@H]2[C@H]1CC/C(C)=C/CC[C@@]1(C)O[C@@H]21 [Compound 8, parthenolide]				IC50 [3]: 5.2 ± 0.9 µM; SI (Selectivity Index) [4]: 6.5; IC50 [4]: 0.8 ± 0.5 µM
C=C1C(=O)OC2C3=C(C)C(=O)CC3C(C)(OC(C)=O)CCC12 (centres unmarked) [Compound 10]	7.6	0.7 µM	4.3 ± 0.5 µM	IC50 [1, 7]: 0.6 ± 0.2 µM
C=C1CC(O)C2C(=C)C(=O)OC2C2C(=C)C(O)CC12 (centres unmarked) [Compound 5, Deacylcynaropicrin]				fold lower antitrypanosomal activity as compared to 1 ([1]; compared to compound 1): 16 fold; IC50 [3]: 19 µM and 19.2 µM; SI (Selectivity Index) [4]: 3.9; IC50 [4]: 4.9 ± 0.34 µM; fold lower cytotoxicity as compared to 1 ([2]; compared to compound 1): nine
CC(=O)OC1(C)CCC2C(CN3CCOCC3)C(=O)OC2C2=C(C)C(=O)CC21 (centres unmarked) [Compound 22, Morpholine adduct]	10.3	0.7 ± 0.1 µM	7.4 ± 0.8 µM	
C=C1C(=O)O[C@@H]2/C=C(/C)[C@@H](O)C/C=C(\C)C[C@H](OC(=O)/C(C)=C\C)[C@@H]12 [Compound 14, Nobilin]				IC50 ([2]; Rattus norvegicus, L6, 70 h): 10.5 ± 0.1 µM
CC(=O)OC1(C)CCC2C(C)C(=O)OC2C2=C(C)C(=O)CC21 (centres unmarked) [Compound 16]	>6.4	46 µM	> 292 µM	IC50 [1, 7]: 45.7 ± 5 µM
CC1=C2C3OC(=O)C(CN4CCN(c5ccccc5Cl)CC4)C3CCC2(C)C=CC1=O (centres unmarked) [Compound 31, 1-(2-Chlorophenyl)piperazine adduct]	3.1	> 5 µM	> 20 µM	IC50 [1, 7]: 7 ± 2.2 µM; IC50 ([2]; cytotoxicity, 70 h incubation, average of three independent assays): 21.8 ± 2.7 µM
CC12CCC3C(CNCCc4ccc(O)cc4)C(=O)OC3C13C=CC(=O)C23C (centres unmarked) [Compound 30, Tyramine adduct]	3.2	9.9 ± 1.6 µM	31.8 ± 1.3 µM	
CC12CCC3C(CN4CCOCC4)C(=O)OC3C13C=CC(=O)C23C (centres unmarked) [Compound 25, Morpholine adduct]	3.8	2.6 ± 0.5 µM	9.9 ± 1.6 µM	
C=C1CC(O)C2C(CN(C)C)C(=O)OC2C2C(=C)C(O)CC12 (centres unmarked) [Compound 20, Deacylcynaropicrin dimethylamine adduct]	2.5	3.6 ± 1 µM	8.6 ± 1.3 µM	
CC12CCC3C(CNCCc4ccc(Cl)cc4)C(=O)OC3C13C=CC(=O)C23C (centres unmarked) [Compound 33, 2-(4-Chlorophenyl)ethylamine adduct]	2.7	10.2 ± 3.2 µM	27.6 ± 6.7 µM	
C=C[C@@]12COC(=O)C(=C)[C@@H]1[C@H]1OC(=O)C(=C)[C@@H]1[C@@H](OC(=O)C(=C)CO)C2 [Compound 4, Vernodalin]	3	0.2 ± 0.01 µM	0.6 ± 0.02 µM	

SMILES	SI (Selectivity Index) [1]	IC50 [1, 5]	IC50 [2, 6]	other results
C=C1CC[C@H]2C(=C)CC[C@H]3C(=C)C(=O)O[C@@H]3[C@@H]12 [Compound 6, dehydrocostuslactone]				IC50 [3]: 8.3 ± 1.9 µM; SI (Selectivity Index) [4]: 1.9; IC50 [4]: 4.4 ± 1.2 µM
CC(=O)OC1(C)CCC2C(CNCCc3ccc(Cl)cc3)C(=O)OC2C2=C(C)C(=O)CC21 (centres unmarked) [Compound 34, 2-(4-Chlorophenyl)ethylamine adduct]	4.2	5.4 ± 1.1 µM	22.5 ± 1.6 µM	
CC1=C2[C@H]3OC(=O)[C@@H](C)[C@@H]3CC[C@@]2(C)C=CC1=O [Compound 17, Santonin]	>8.8			IC50 [1, 8]: 41.5 ± 0.8 µM; IC50 [2, 9]: > 366 µM
C=C1C(=O)O[C@@H]2[C@H]1CC[C@H](C)[C@]1(CCC(=O)O1)[C@@]2(C)O [Compound 11, Psilostachyin A]	1.2	5.8 ± 0.7 µM	6.9 ± 1.8 µM	
CC1C(=O)C=CC2(C)CCC3C(CNCCc4ccc(O)cc4)C(=O)OC3C12 (centres unmarked) [Compound 26, Tyramine adduct]	>35.0	6.7 ± 1.3 µM	> 236 µM	
COc1cc([C@@H]2c3cc4c(cc3[C@H](O)[C@H]3COC(=O)[C@H]23)OCO4)cc(OC)c1OC [Podophyllotoxin, reference compound]				IC50 ([2]; Rattus norvegicus, L6, 70 h): 0.02 ± 0.01 µM
C=C1C(=O)OC2C1CCC(=C)C1CC(OC(C)=O)C(=C)C12 (centres unmarked) [Compound 9, Zaluzanin D]				IC50 [3]: 15.6 µM; SI (Selectivity Index) [4]: 1.4; IC50 [4]: 10.8 µM
Nc1nc(N)nc(Nc2ccc([As]3SCC(CO)S3)cc2)n1 (centres unmarked) [Melarsoprol, reference compound]	2170			IC50 ([1]; Trypanosoma brucei, 70 h): 0.01 ± 0.01 µM; IC50 ([2]; Rattus norvegicus, L6, 70 h): 21.7 ± 8.7 µM
C=C1C(=O)O[C@@H]2/C=C(\CO)CC/C=C(\C)C[C@H](OC(=O)C(=C)[C@H](O)CO)[C@@H]12 [Compound 3, Cnicin]	10	0.4 ± 0.1 µM	4.2 ± 0.9 µM	
CC1C(=O)CCC2(C)CCC3C(CN4CCOCC4)C(=O)OC3C12 (centres unmarked) [Compound 23, Morpholine adduct]	5.6	11.8 ± 2.7 µM	65.6 ± 9.7 µM	
CC(=O)OC1(C)CCC2C(CNCCc3ccc(O)cc3)C(=O)OC2C2=C(C)C(=O)CC21 (centres unmarked) [Compound 29, Tyramine adduct]	3.3	6.6 ± 0.7 µM	22.1 ± 4 µM	
CC1C(=O)OC2C1CCC1(C)C=CC(=O)C(C)C21 (centres unmarked) [Compound 18]	2.6			IC50 [1, 8]: 12.9 ± 2.4 µM; IC50 [2, 9]: 34 ± 1.5 µM
CCN(CC)CC1C(=O)OC2C3=C(C)C(=O)CC3C(C)(O)CCC12 (centres unmarked) [Compound 21, Deacylated diethylamine adduct]	2.2	4.2 ± 0.8 µM	9.4 ± 2.2 µM	
CC1=C2C3OC(=O)C(C)C3CCC(C)(O)C2CC1O (centres unmarked) [Compound 15, 3-Hydroxyisophotosantonin]	6.4	54.7 ± 8 µM	353 ± 4 µM	
C=C(CO)C(=O)O[C@H]1C/C(C)=C\CC/C(CO)=C\[C@H]2OC(=O)C(=C)[C@H]12 [Compound 2, Onopordopicrin]				IC50 [3]: 3.1 ± 1.1 µM; SI (Selectivity Index) [4]: 8.2; IC50 [4]: 0.4 ± 0.01 µM
CC1=C2C3OC(=O)C(CNCCc4ccc(O)cc4)C3CCC2(C)C=CC1=O (centres unmarked) [Compound 28, Tyramine adduct]	6.5	13.4 ± 1.1 µM	87.9 ± 2.2 µM	
